# Patent US20250353873A1, “COMPOUNDS AND METHODS FOR MODULATING APOE EXPRESSION” (Ionis Pharmaceuticals, Inc., priority 2024, published 2025)
# Strand notation (5' to 3'): a small letter for the sugar, then the base; units joined by * are phosphorothioate-linked, units joined directly phosphodiester-linked; [ ] holds rarer units or linkages, { } end groups; capitals alone tell only the bases. [ms] = mesyl phosphoramidate linkage; e = 2'-O-(2-methoxyethyl) (MOE); k = constrained ethyl (cEt); [5mC] = 5-methylcytosine; d = 2'-deoxy (DNA)
# Tested on: human APOE RNA
# Assay: Activity in APOE 1549 knock-in mice, single ICV bolus, 4 weeks (Example 8)
# Format: in vivo
# Details: n = 6, single ICV bolus 300 μg, 4 weeks
# Description: Modified oligonucleotides described above were tested in the 1549 APOE knock-in mouse model described above.
# APOE knock-in mice were divided into groups of either 2 or 6 mice each as described in the tables below. Each mouse received a single intracerebroventricular (ICV) bolus of 300 μg of modified oligonucleotide. A group of either 3 or 6 mice received a single ICV bolus with PBS as a negative control.
# Four weeks post treatment, mice were sacrificed and RNA was extracted from cortical brain tissue and spinal cord for quantitative real-time RT-PCR analysis of RNA expression of APOE using primer probe set RTS3073 (described herein above). APOE RNA levels were normalized to mouse Ppia. Mouse Ppia was amplified using primer probe set m_cyclo24 (described herein above). Results are presented as percent human APOE RNA relative to the amount of human APOE RNA in PBS treated animals, (% control). Each experiment is identified in separate tables below.
substance,measurement,setting,value
Aes^mCeoTeoTesGesGksTdsGdzAdzAdzTds^mCdsTdsTdsTdsAdzTksTksAesAe (eA*e[5mC]eTeT*eG*kG*dT*dG[ms]dA[ms]dA[ms]dT*d[5mC]*dT*dT*dT*dA[ms]kT*kT*eA*eA) [Compound No. 1757576],APOE RNA (% control) Cortex,Cortex,26 % control
same,APOE RNA (% control) Spinal Cord,Spinal Cord,17 % control
